Data taken from patent US6881719B2, “β-turn peptidomimetic cyclic compounds” (McGill University, priority 2000, dated 2005).

Biological target: T1, NIH3T3 fibroblasts expressing TrkC (Homo sapiens, UniProt Q16288)
T1 construct: expressed in transfected cells; host or cells: NIH3T3 fibroblasts
Test: Cell survival (MTT), NIH-TrkC
Type: cell-based
Details: for NIH-TrkC % Protection: 72 hours
Description: The 4-3.6 cells are B104 cells stably transfected with human trkA cDNA, and express equal levels of p75 and TrkA (TrkA+ p75+). For screening agents that activate or antagonize TrkC receptors, NIH3T3 fibroblasts were stably transfected with human TrkC cDNA. These cells respond to the ligand NT-3. For screening agents that activate or antagonize TrkA receptors, NIH3T3 fibroblasts were stably transfected with human TrkA cDNA. These cells respond to the ligand NGF.
Cell lines: 5,000 cells/well in protein-free media (PFHM-II, GIBCO, Toronto) containing 0.2% bovine serum albumin (BSA) (Crystalline fraction V, Sigma, St. Louis, Mo.) were seeded in 96 well plates (Falcon, Mississauga, Ontario). The cultures were untreated, or treated with the indicated test or control ligands. Cell viability was quantitated using the MTT assay after 56-72 hours of culture. […] The OD of untreated cells were subtracted. The higher optical density of untreated primary cultures is likely due to cellular heterogeneity and to endogenous production of limiting amounts of growth factors.

T1 sequence (Q16288 32-839): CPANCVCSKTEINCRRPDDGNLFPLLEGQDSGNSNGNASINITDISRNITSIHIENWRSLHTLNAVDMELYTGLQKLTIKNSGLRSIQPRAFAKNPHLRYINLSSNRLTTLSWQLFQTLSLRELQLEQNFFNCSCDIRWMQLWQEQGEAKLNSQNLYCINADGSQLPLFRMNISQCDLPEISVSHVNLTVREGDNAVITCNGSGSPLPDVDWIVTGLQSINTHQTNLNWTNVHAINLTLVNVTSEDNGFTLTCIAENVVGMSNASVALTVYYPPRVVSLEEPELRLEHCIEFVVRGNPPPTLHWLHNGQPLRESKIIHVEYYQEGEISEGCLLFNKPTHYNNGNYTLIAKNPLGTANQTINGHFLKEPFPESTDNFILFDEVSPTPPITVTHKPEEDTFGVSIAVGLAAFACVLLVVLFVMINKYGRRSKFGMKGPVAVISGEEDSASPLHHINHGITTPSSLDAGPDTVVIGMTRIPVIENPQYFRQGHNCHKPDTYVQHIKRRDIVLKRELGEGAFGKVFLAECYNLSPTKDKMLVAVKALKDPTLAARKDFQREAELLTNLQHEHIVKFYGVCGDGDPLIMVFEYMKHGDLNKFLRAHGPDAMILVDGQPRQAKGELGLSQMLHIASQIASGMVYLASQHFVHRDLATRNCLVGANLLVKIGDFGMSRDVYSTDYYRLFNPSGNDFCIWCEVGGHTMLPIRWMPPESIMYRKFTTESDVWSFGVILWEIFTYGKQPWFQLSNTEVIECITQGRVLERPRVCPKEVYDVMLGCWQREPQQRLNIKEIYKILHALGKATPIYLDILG

NCCCC[C@@H]1NC(=O)[C@H](CCC(=O)O)NC(=O)c2cc([N+](=O)[O-])ccc2OCCC(C(=O)NCC(=O)O)NC1=O (stereo partly drawn) [D3, EKHse-G-OH]
enhancement of NT-3 protection (NIH3T3 cells stably transfected with trkC cDNA): did not enhance NT-3 protection
NIH-TrkC % Protection (agent 10 μM + 10 pM NGF): 6 ± 2%
NIH-TrkC % Protection (agent 10 μM alone): 3 ± 3%
